{
  "source": "paper PMC9800617",
  "about": "“Pharmacokinetics/pharmacodynamics of polymyxin B in patients with bloodstream infection caused by carbapenem-resistant Klebsiella pneumoniae” (Frontiers in Pharmacology, 2022)",
  "key": {"[1]": {"experiment": "Plasma pharmacokinetics of polymyxin B in CRKP BSI patients (LC-MS/MS; non-compartmental and compartmental)", "format": "in vivo, human", "settings": "mean ± SD", "protocol": "Polymyxin B Sulphate for Injection (Lot No. A-1411137) containing 72.0% polymyxin B1 and B1-Ile and 12.1% polymyxin B2 was provided by SPH No. 1 Biochemical & Pharmaceutical Co., Ltd. (Shanghai, China). Prior to administration, polymyxin B was dissolved in 50–100 ml normal saline as per the manufacturer’s instructions then administered intravenously at a dose of 1.25 mg/kg every 12 h (2-h infusion) with an initial loading dose of 2.5 mg/kg (3-h infusion). Treatment lasted for 7–14 days as per treatment guidelines ([Rhodes et al., 2017]). Adverse events were closely monitored and recorded for each patient.\nBlood samples (4 mL) for pharmacokinetic analysis were collected in tubes with EDTA-K2 as the anticoagulant immediately before and after administration of the polymyxin B loading dose (the first dose) and immediately before administration of the second dose. Subsequent blood samples were collected during the second visit (5th, 6th or 7th dosing) consisting of a sample immediately prior to the infusion and at .5, 1, 2, 3, 4, 5, 6, 7, 8, 10, and 12 h following the commencement of the infusion. If possible, a final blood sample was collected 24 h after the commencement of the last infusion. All blood samples were centrifuged (4°C, 2,000 g) and plasma collected and stored at −80°C until analysis.\nThe concentrations of polymyxin B1 (including B1-Ile) and polymyxin B2 were determined using a validated liquid chromatography-tandem mass spectrometry (LC-MS/MS) method ([Liu et al., 2020]). […] The calibration range was .050–5.00 mg/L for polymyxin B1 and .011–.549 mg/L for polymyxin B2. The concentration of polymyxin B was calculated by the sum of concentrations of polymyxin B1 and B2 using molar terms and their molecular weights (polymyxin B1 is 1203.48 g/mol, polymyxin B2 is 1189.45 g/mol).\nThe PK parameters of polymyxin B were calculated using Phoenix WinNonlin 8.0 (Certara^TM, USA) with non-compartmental and compartmental methods. PPK analysis was conducted using NONMEM 7.4 (Icon Development Solutions, Ellicott City, MD) with G77 FORTRAN complier and FOCEI algorithm. Results from BSI patients in the present study and healthy subjects in a previous study were combined ([Liu et al., 2021]). One- and two-compartment models were tested during development of the base model. Models were developed and evaluated based on an objective function value and goodness-of-fit plots. The covariates were selected using a forward inclusion and backward elimination strategy. The screened covariates were sex, age, body weight, height, body mass index (BMI), creatinine clearance (CLcr), albumin, hemoglobin, total protein, total bilirubin, serum alanine aminotransferase (ALT), serum aspartate aminotransferase (AST), serum creatinine, Sequential Organ Failure Assessment (SOFA) score, and disease state (BSI patients were defined as 1 and healthy subjects were defined as 2). Covariates were included in the model based on the criteria of OFV requiring a decrease of 3.84 (p < .05) in the forward inclusion and an increase of greater of 10.83 (p < .001) in the backward elimination. Bootstrap sampling and visual predictive checks (VPCs) were utilized to validate the robustness of the final model."}, "[2]": {"settings": "24 critically ill patients, 0.45–3.38 mg/kg/day, no loading dose, ref Sandri et al., 2013, cited from earlier work", "protocol": "A good understanding of the PK of polymyxin B is essential for optimizing its clinical use. A previous population PK study examining the use of polymyxin B (0.45–3.38 mg/kg/day) in 24 critically ill patients reported an AUCss,24h of 66.9 ± 21.6 mg h/L (range, 16.4–117 mg h/L) and Css,avg of 2.79 ± 0.90 mg/L; no loading dose was administered ([Sandri et al., 2013])."}, "[3]": {"settings": "cited from earlier work", "description": "Nephrotoxicity following intravenous administration of polymyxin B may occur in up to ∼30% of patients and constitutes the major dose-limiting factor with polymyxin therapy ([Ouderkirk et al., 2003]; [Sobieszczyk et al., 2004]; [Phe et al., 2014]; [Oliota et al., 2019]). The inability to substantially increase the daily dose of polymyxins may lead to suboptimal dosing which compromises efficacy and increases the likelihood of resistance emerging ([Zavascki et al., 2007]; [Rigatto et al., 2014]). In the present study, no pathological factors affecting renal function were present in any of the p ..."}, "[4]": {"settings": "human, steady state, 1.25 mg/kg/12 h (2-h iv infusion), plasma, LC-MS/MS, non-compartmental"}},
  "note": "Like-named read-outs stand apart in the source and are kept apart here. Bridge positions count the residues as written; N and C are the ends. Square brackets hold non-standard residues; d marks the D form. Peptide text beside a SMILES is read from it. * marks the point of attachment. X1 = CC[C@H](C)CCCCC(=O)*; Dab = NCC[C@H](N)C(=O)O",
  "data": [
    {"smiles": "CC[C@H](C)CCCCC(=O)N[C@@H](CCN)C(=O)N[C@H](C(=O)N[C@@H](CCN)C(=O)N[C@H]1CCNC(=O)[C@H]([C@@H](C)O)NC(=O)[C@H](CCN)NC(=O)[C@H](CCN)NC(=O)[C@H](CC(C)C)NC(=O)[C@@H](Cc2ccccc2)NC(=O)[C@H](CCN)NC1=O)[C@@H](C)O", "note": "[polymyxin B] (X1-[Dab]T[Dab][Dab][Dab][dF]L[Dab][Dab]T; lactam 4-C)", "values": [
      {"measurement": "Cmax", "setting": "[1]; human, 2.5 mg/kg loading dose, 3-h iv infusion, plasma, LC-MS/MS, read-out: Cmax following the loading dose", "result": "5530 ± 1800", "unit": "ng/mL"},
      {"measurement": "level at 12 h", "setting": "[1]; human, 2.5 mg/kg loading dose, 3-h iv infusion, plasma, LC-MS/MS, read-out: Cmin (12 h) following the loading dose", "result": "1620 ± 410", "unit": "ng/mL"},
      {"measurement": "clearance", "setting": "[1]; human, plasma, iv, two-compartmental analysis, read-out: CL, clearance from the central compartment (converted)", "result": 0.433, "unit": "mL/min/kg"},
      {"measurement": "Vd", "setting": "[1]; [4]", "result": "0.49 ± 0.142", "unit": "L/kg"},
      {"measurement": "half-life", "setting": "[1]; [4]", "result": "12.5 ± 3.11", "unit": "h"},
      {"measurement": "AUC(0-t)", "setting": "[1]; human, steady state, 1.25 mg/kg/12 h (2-h iv infusion), plasma, LC-MS/MS, non-compartmental, read-out: AUC12h", "result": "39800 ± 12500", "unit": "ng·h/mL"},
      {"measurement": "clearance", "setting": "[1]; human, steady state, 1.25 mg/kg/12 h (2-h iv infusion), plasma, LC-MS/MS, non-compartmental, read-out: CL (converted)", "result": 0.467, "unit": "mL/min/kg"},
      {"measurement": "Cmax", "setting": "[1]; human, steady state, 1.25 mg/kg/12 h (2-h iv infusion), plasma, LC-MS/MS, non-compartmental, read-out: Cmax", "result": "5420 ± 1690", "unit": "ng/mL"},
      {"measurement": "Cavg (Css,avg)", "setting": "[1]; steady state, 1.25 mg/kg/12 h (2-h iv infusion), plasma, LC-MS/MS, non-compartmental", "result": "3350 ± 1060", "unit": "ng/mL"},
      {"measurement": "K10, elimination rate constant", "setting": "[1]; two-compartmental analysis", "result": "0.165 ± 0.065", "unit": "h⁻¹"},
      {"measurement": "K12, rate constant central to peripheral compartment", "setting": "[1]; two-compartmental analysis", "result": "0.702 ± 0.395", "unit": "h⁻¹"},
      {"measurement": "K21, rate constant peripheral to central compartment", "setting": "[1]; two-compartmental analysis", "result": "0.214 ± 0.137", "unit": "h⁻¹"},
      {"measurement": "V1, central volume of distribution", "setting": "[1]; two-compartmental analysis", "result": "0.163 ± 0.036", "unit": "L/kg"},
      {"measurement": "V2, peripheral volume of distribution", "setting": "[1]; two-compartmental analysis", "result": "0.565 ± 0.243", "unit": "L/kg"},
      {"measurement": "AUCss,24h", "setting": "[2]; mean ± SD, SD", "result": "66900 ± 21600", "unit": "ng·h/mL"},
      {"measurement": "Css,avg", "setting": "[2]; mean ± SD, SD", "result": "2790 ± 900", "unit": "ng/mL"},
      {"measurement": "AUCss,24h, range", "setting": "[2]", "result": "16400 to 117000", "unit": "ng·h/mL"},
      {"measurement": "incidence of nephrotoxicity reported previously", "setting": "[3]; ref Oliota et al., 2019", "result": 29.8, "unit": "%"},
      {"measurement": "incidence of polymyxin B-associated nephrotoxicity (RIFLE criteria)", "setting": "[3]; ref Phe et al., 2014", "result": 23.1, "unit": "%"},
      {"measurement": "patients with nephrotoxicity following intravenous administration", "setting": "[3]; up to, ref Ouderkirk et al., 2003, Sobieszczyk et al., 2004, Phe et al., 2014, Oliota et al., 2019", "result": "~30", "unit": "%"}
    ]}
  ]
}
